The text below walks through data of patent US11065259B2, “Methods of treating pruritus” (Duke University, priority 2014, dated 2021).

For this assay, the system named is pruritus (itch). Briefly: Topical administration to human subjects with psoriasis-associated pruritus. As to conditions: person. It is filed as in vivo. On the procedure:
The efficacy of Manganese ortho tetrakis(N-n-butoxyethylpyridinium-2-yl)porphyrin (MnTnBuOE-2-PyP^5+) in treating pruritus (itch) when topically applied was evaluated in a person with large areas of moderately severe plaque-forming psoriasis on upper and lower portions of both legs, with each involved area being approximately 10-20 cm in diameter. These lesions were markedly excoriated with intense, persistent symptoms of pruritus. MnTnBuOE-2-PyP^5+ was formulated in Lipoderm at 0.01% and 0.1% concentrations producing a light brown cream which was applied b.i.d. to lesions on one extremity. Symptoms of pruritus were relieved within 10 to 15 minutes after topical application of MnTnBuOE-2-PyP^5+ and remained under control for several hours.
A second subject with psoriatic involvement of the scalp of moderate severity and associated with marked pruritus and scratching was topically treated with MnTnBuOE-2-PyP^5+ 0.1% in Lipoderm twice daily for 3 weeks.

Where [1] appears, read: plaque-forming psoriasis on both legs, 0.01% and 0.1% in Lipoderm, topical b.i.d.
Where [2] appears, read: psoriatic involvement of the scalp, 0.1% in Lipoderm, topical twice daily for 3 weeks.

“Manganese ortho tetrakis(N-n-butoxyethylpyridinium-2-yl)porphyrin [MnTnBuOE-2-PyP^5+]”: under setting [1], the “time after topical application until symptoms of pruritus were relieved” value was in the range of 10 to 15 min and the “time symptoms of pruritus remained under control” value was “several hours”. The “comparison of efficacy of 0.01% and 0.1% concentrations” value (plaque-forming psoriasis on both legs, lesions treated with 0.01% vs 0.1% in Lipoderm) is reported as “Equivalent efficacy”. In addition, the “effect of repeat application on pruritus” value (plaque-forming psoriasis on both legs, repeat topical application in Lipoderm) was “consistently reduced pruritus without tachyphylaxis”. Under setting [2], the “resolution of pruritic symptoms” value is on record as “completely effective in resolving pruritic symptoms”, the “time after application until symptoms of pruritus were relieved” value is listed as “within minutes” and the “time symptoms of pruritus remained under control” value is reported as “up to 12 hours”.
